How the values were obtained:
Type in all cases: cell-based
Bacillus cereus = experiment: Agar plate disc-diffusion, antibacterial, inhibition zone; settings: Gram positive
Procedure: (§1) The agar plate disc-diffusion method was applied. […] The discs were then placed onto the surface of agar plates (nutrient agar for bacteria and Sabouraud's dextrose agar for fungi) seeded with the test organism. Each plate contained 15 mL of the agar medium, previously seeded with 0.2 mL of the broth culture of each organism pregrown for 18 hours. The plates were incubated at 37° C. for 48 hours, and 72 hours for fungi. The inhibition zones was measured in mm. Discs impregnated with DMSO were used as a control, and its inhibition zone was subtracted from the tested compound actual inhibition zone.

Escherichia coli = experiment: as above; settings: Gram negative
Procedure: as §1

Pseudomonas aeruginosa = experiment: as above; settings: Gram negative
Procedure: as §1

Staphylococcus aureus = experiment: as above; settings: Gram positive
Procedure: as §1

Aspergillus flavus = experiment: Agar plate disc-diffusion, antifungal, inhibition zone; settings: fungal
Procedure: as §1

[1] = system: Chrysosporium keratinophilum; experiment: as above; settings: fungal
Procedure: as §1

[2] = A = concentration of comp. = 10,000 μL
[3] = B = concentration of comp. = 30,000 μL
[4] = C = concentration of comp. = 50,000 μL

**Q.** Which “inhibition zone, Bacillus Cereus” value (Bacillus cereus; [2]) does the source give for `N/C(=N\OC(=O)CSc1nnc(-c2ccccc2)o1)c1ccc([N+](=O)[O-])cc1` [Compound 3, 4-nitro-N′-(2-(5-phenyl-1,3,4-oxadiazol-2-ylthio)acetoxy)benzimidamide] here?
**A.** The value was 20 mm.

**Q.** And the “inhibition zone, Bacillus Cereus” value (Bacillus cereus; [3])?
**A.** Its value is 25 mm.

**Q.** What about the “inhibition zone, Bacillus Cereus” value (Bacillus cereus; [4]) of the same compound?
**A.** The value was 34 mm.

**Q.** And the “inhibition zone, Escherichia coli” value (Escherichia coli; [2])?
**A.** The value was 27 mm.

**Q.** What about the “inhibition zone, Escherichia coli” value (Escherichia coli; [3]) of the same compound?
**A.** The value was 33 mm.

**Q.** And the “inhibition zone, Escherichia coli” value (Escherichia coli; [4])?
**A.** Its value is 48 mm.

**Q.** And the “inhibition zone, Pseudomonas aeruginosa” value (Pseudomonas aeruginosa; [2])?
**A.** The value was 19 mm.

**Q.** What about the “inhibition zone, Pseudomonas aeruginosa” value (Pseudomonas aeruginosa; [3]) of the same compound?
**A.** Its value is 25 mm.

**Q.** What about the “inhibition zone, Pseudomonas aeruginosa” value (Pseudomonas aeruginosa; [4]) of the same compound?
**A.** Its value is 36 mm.

**Q.** And the “inhibition zone, Staphylococcus aureus” value (Staphylococcus aureus; [2])?
**A.** The value was 19 mm.

**Q.** What about the “inhibition zone, Staphylococcus aureus” value (Staphylococcus aureus; [3]) of the same compound?
**A.** Its value is 22 mm.

**Q.** And the “inhibition zone, Staphylococcus aureus” value (Staphylococcus aureus; [4])?
**A.** The value was 38 mm.

**Q.** And the “inhibition zone, Aspergillus flavus” value (Aspergillus flavus; [2])?
**A.** Its value is 17 mm.

**Q.** What about the “inhibition zone, Aspergillus flavus” value (Aspergillus flavus; [3]) of the same compound?
**A.** The value was 23 mm.

**Q.** What about the “inhibition zone, Aspergillus flavus” value (Aspergillus flavus; [4]) of the same compound?
**A.** The value was 35 mm.

**Q.** And the “inhibition zone, Chrysosporium keratinophilum” value [1, 2]?
**A.** The value was 26 mm.

**Q.** And the “inhibition zone, Chrysosporium keratinophilum” value [1, 3]?
**A.** The value was 28 mm.

**Q.** What about the “inhibition zone, Chrysosporium keratinophilum” value [1, 4] of the same compound?
**A.** Its value is 43 mm.
